Measured values published in paper PMC11602988 (The Journal of Biological Chemistry, 2024).
Changes are numbered by the printed parent chain. Read-outs that look alike come from different tables or passages of the source.

Legend:
[1] = biological target: T1, OCT1 WT (Homo sapiens, UniProt O15245); experiment: Uptake screening (transport ratio over empty vector), HEK293 cells overexpressing OCT1 WT; format: cell-based; design: expressed in transfected cells;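 note: intracellular substrate levels quantified by HPLC–tandem mass spectrometry after uptake in HBSS+ buffer at 37 °C, stable Flp-In HEK293 lines, fold change versus empty vector–transfected cells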
T1 sequence (O15245 1-554): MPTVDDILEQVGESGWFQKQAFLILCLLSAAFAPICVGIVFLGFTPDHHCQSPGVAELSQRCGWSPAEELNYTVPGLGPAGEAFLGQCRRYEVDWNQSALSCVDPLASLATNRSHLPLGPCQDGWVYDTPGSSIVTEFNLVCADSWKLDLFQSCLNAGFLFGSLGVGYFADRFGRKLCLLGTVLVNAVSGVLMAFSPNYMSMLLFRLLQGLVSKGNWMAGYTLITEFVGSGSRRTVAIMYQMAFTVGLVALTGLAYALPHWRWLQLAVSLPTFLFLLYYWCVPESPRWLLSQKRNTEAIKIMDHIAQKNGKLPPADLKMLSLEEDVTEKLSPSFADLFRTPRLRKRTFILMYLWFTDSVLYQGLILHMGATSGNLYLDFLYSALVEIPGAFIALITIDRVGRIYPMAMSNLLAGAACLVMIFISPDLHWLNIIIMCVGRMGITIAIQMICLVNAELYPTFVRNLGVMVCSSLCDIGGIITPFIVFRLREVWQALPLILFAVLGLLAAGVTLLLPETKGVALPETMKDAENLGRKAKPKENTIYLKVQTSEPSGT
Procedure: All experiments were carried out using transporter-overexpressing HEK293 cells. […] Cells were cultivated in Dulbecco’s Modified Eagle’s medium supplemented with 10% fetal calf serum, 100 U/ml penicillin, and 100 μg/ml streptomycin. Cells were passaged twice a week and kept in culture for no longer than 30 passages.
For uptake studies, 300,000 HEK293 cells were plated in each well of 24-well plates precoated with poly-D-lysine 48 prior to the experiment. On the day of the experiment, cells were washed once with prewarmed to 37 °C HBSS+ (Hank’s balanced salt solution supplemented with 10 mM Hepes, both Sigma-Aldrich). […] Uptake was stopped by adding ice-cold HBSS+ and cells were washed twice with ice-cold buffer before cell lysis was done using 80% acetonitrile containing an appropriate internal standard for eventual mass spectrometry. Relative quantification was done by comparison of transporter-overexpressing cells to empty vector–transfected controls. For uptake kinetic experiments, cells were incubated with increasing concentrations of substrate dissolved in HBSS+. Absolute quantification was done later by comparison to a standard curve in lysis buffer with known concentration.
Intracellular drug concentrations were detected and quantified by HPLC coupled to mass spectrometry. […] Substance-specific conditions were used to adjust the retention times of the analytes.
Transport ratios were determined as relative fold-increase of the uptake in transporter-overexpressing cells over empty vector–transfected control cells. For transport kinetic experiments, absolute substrate quantification was done by signal comparison to a standard curve with known concentrations. Net uptake was then determined by subtracting the uptake into empty vector–transfected cells from transporter-overexpressing cells. […] Vmax defines the maximum transport velocity, Km refers to the substrate concentration required to reach half vmax. The intrinsic clearance Clint is the ratio of vmax over Km.

[2] = biological target: T2, OCT1 Phe244Ala variant (Homo sapiens, UniProt O15245, F244A); experiment: Uptake screening (transport ratio over empty vector), HEK293 cells overexpressing OCT1 Phe244Ala variant; format: cell-based; design: expressed in transfected cells;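 note: stably transfected HEK293 cells, intracellular substrate quantified by HPLC-tandem mass spectrometry in cell lysates, uptake in HBSS+ buffer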
T2 sequence (O15245 1-554 F244A): T1 sequence (O15245 1-554) with F244A

[3] = uptake ratio of OCT1 WT-overexpressing HEK293 cells over empty vector
[4] = Phe244Ala uptake relative to OCT1 WT
[5] = uptake ratio of OCT1 Phe244Ala-overexpressing HEK293 cells over empty vector
[6] = uptake ratio over empty vector, HEK293 cells overexpressing OCT1 WT
[7] = uptake ratio over empty vector, HEK293 cells overexpressing OCT1 Phe244Ala
[8] = Phe244Ala uptake relative to WT

Row | Structure (SMILES) | Mean_transport_ratio_WT [1, 3] | relative_Phe244Ala_uptake_in% [2, 4] [%] | Mean_transport_ratio_Phe244Ala [2, 5] | Mean_transport_ratio_WT [1, 6] | Mean_transport_ratio_Phe244Ala [2, 7] | relative_Phe244Ala_uptake_in% [2, 8] [%] | also measured
1 | CC(N)CCCC(C)(C)O (centres unmarked) [Heptaminol] | 8.957 | 20.840 | 2.658 | – | – | – | –
2 | CN1CCN(CC(=O)N2c3ccccc3C(=O)Nc3cccnc32)CC1 [Pirenzipin] | – | 803.892 | – | 1.911 | 8.32 | – | –
3 | Cc1ncccc1C(N)=O [Methylnicotinamide] | 3.894 | -6.232 | 0.82 | – | – | – | –
4 | O=C(OC1C[N+]2(CCCOc3ccccc3)CCC1CC2)C(O)(c1cccs1)c1cccs1 [(S)-Aclidinium] | – | – | – | 4.495 | 8.181 | 205.468 | –
5 | CCC1(C2=NCCN2)Cc2ccccc2O1 (centres unmarked) [Efaroxan] | – | – | – | 1.81 | 1.371 | 45.757 | –
6 | CCNCC(O)c1cccc(O)c1 (centres unmarked) [Etilefrine] | – | – | – | 6.81 | 3.319 | 39.917 | –
7 | C[n+]1ccc(-c2ccccc2)cc1 [MPP^+, 1-Methyl-4-phenylpyridinium] | 45.919 | 63.172 | 29.377 | – | – | – | –
8 | CC[N+](CC)(CC(=O)Nc1c(C)cccc1C)Cc1ccccc1 [Denatonium] | – | – | – | 14.264 | 17.085 | 121.267 | –
9 | CNCc1ccc(-c2[nH]c3cc(F)cc4c3c2CCNC4=O)cc1 [Rucaparib] | – | 161.437 | – | 2.018 | 2.644 | – | –
10 | COCCn1c2c([n+](Cc3cnccn3)c1C)C(=O)c1ccccc1C2=O [YM155] | – | 88.784 | – | 18.329 | 16.385 | – | –
11 | CC1(C)N=C(N)N=C(N)N1c1ccc(Cl)cc1 [Cycloguanil] | – | – | – | 17.269 | 16.588 | 95.814 | –
12 | CC[N+](C)(CC)CCOC(=O)C(O)(c1ccccc1)C1CCCCC1 (centres unmarked) [Oxyphenonium] | – | 124.905 | – | 32.636 | 40.516 | – | –
13 | CNC(=C[N+](=O)[O-])NCCSCc1csc(CN(C)C)n1 [Nizatidine] | 4.961 | 10.436 | 1.413 | – | – | – | –
14 | Oc1ccc(CC2NCCc3cc(O)c(O)cc32)cc1 (centres unmarked) [Higenamine] | 27.934 | 44.661 | 13.029 | – | – | – | –
15 | COc1ccc2[nH]cc(CCN)c2c1 [5-Methoxytryptamine] | – | – | – | – | – | – | Mean_transport_ratio_WT [1]: 3.73; Mean_transport_ratio_Phe244Ala [2]: 1.602; relative_Phe244Ala_uptake_in% [2]: 22.030%
16 | CCOC(=O)c1ccc(OC(=O)CCCCCNC(=N)N)cc1 [Gabexate] | 1.935 | 112.397 | 2.051 | – | – | – | –
17 | CNC(C)Cc1ccc2c(c1)OCO2 (centres unmarked) [3,4-Methylendioxy-N-methylamphetamin] | 1.723 | 158.013 | 2.142 | – | – | – | –
18 | C[C@H]1N=C(N(C)C)N=C(N)N1 [Imeglimin] | 32.655 | 25.831 | 9.177 | – | – | – | –
19 | CC(CCc1ccc(O)cc1)NCC(O)c1ccc(O)cc1 (centres unmarked) [Ractopamine] | – | 102.038 | – | 6.92 | 7.041 | – | –
20 | CC[C@@H](CO)NCCN[C@@H](CC)CO [(R,R)-Ethambutol] | – | – | – | – | – | – | Mean_transport_ratio_WT [1]: 26.39; Mean_transport_ratio_Phe244Ala [2]: 16.298; relative_Phe244Ala_uptake_in% [2]: 60.253%
21 | COc1cc2c(cc1OC)-c1c(C)c3ccc(OC)c(OC)c3c[n+]1CC2 [Dehydrocorydaline] | – | – | – | 9.385 | 9.409 | 100.287 | –

Row | Structure (SMILES) | Mean_transport_ratio_WT [1, 3] | relative_Phe244Ala_uptake_in% [2, 4] [%] | Mean_transport_ratio_Phe244Ala [2, 5] | Mean_transport_ratio_WT [1, 6] | Mean_transport_ratio_Phe244Ala [2, 7] | relative_Phe244Ala_uptake_in% [2, 8] [%] | also measured
22 | CC(C)NCC(O)c1ccc(O)c(O)c1 (centres unmarked) [Isoproterenol] | 6.241 | 28.983 | 2.519 | – | – | – | –
23 | CNCC(O)c1ccc(O)cc1 (centres unmarked) [Synephrine] | – | 47.706 | – | 8.37 | 4.516 | – | –
24 | CC(C)N(CCC(C(N)=O)(c1ccccc1)c1ccccn1)C(C)C (centres unmarked) [Disopyramide] | – | – | – | 1.334 | 1.093 | 27.882 | –
25 | O=C(O[C@H]1C[N+]2(CCCOc3ccccc3)CCC1CC2)C(O)(c1cccs1)c1cccs1 [(R)-Aclidinium] | – | – | – | 5.059 | 6.14 | 126.640 | –
26 | CNCC(O)c1ccc(O)c(OC)c1 (centres unmarked) [Metanephrine] | 7.123 | 38.392 | 3.351 | – | – | – | –
27 | c1cnn(C2CCNCC2)c1 [762240-09-5] | – | – | – | 4.49 | 1.119 | 3.421 | –
28 | CCCC[N+]1(C)[C@@H]2C[C@@H](OC(=O)[C@H](CO)c3ccccc3)C[C@H]1[C@@H]1O[C@@H]12 (some centres unmarked) [Butylscopolamine] | – | – | – | 24.775 | 30.852 | 125.561 | –
29 | CC(NCCc1ccc(O)cc1)C(O)c1ccc(O)cc1 (centres unmarked) [Ritodrine] | – | 143.135 | – | 8.916 | 12.33 | – | –
30 | COc1ccc2c3c([nH]c2c1)C(C)=NCC3 [Harmaline] | 1.46 | 53.184 | 1.245 | – | – | – | –
31 | CN(C)CCc1c[nH]c2ccc(CS(=O)(=O)N3CCCC3)cc12 [Almotriptan] | – | – | – | 3.882 | 4.279 | 113.777 | –
32 | OC(c1ccccc1)(c1ccccc1)C12CC[N+](CCOCc3ccccc3)(CC1)CC2 [Umeclidinium] | – | 127.145 | – | 6.027 | 7.391 | – | –
33 | C[N+]1(C)[C@@H]2CC(OC(=O)C(O)(c3cccs3)c3cccs3)C[C@H]1[C@@H]1O[C@@H]12 (some centres unmarked) [Thiotropium] | – | – | – | – | – | – | Mean_transport_ratio_WT [1]: 34.841; Mean_transport_ratio_Phe244Ala [2]: 35.339; relative_Phe244Ala_uptake_in% [2]: 101.472%
34 | O=S(=O)(c1cccc2cnccc12)N1CCCNCC1 [Fasudil] | 1 | – | 1.171 | – | – | – | –
35 | NC(N)=NCc1cccc(I)c1 [Metaiodobenzylguanidine] | 11.544 | 96.674 | 11.193 | – | – | – | –
36 | NCCc1ccc(O)cc1 [p-Tyramine] | – | 11.429 | – | 4.809 | 1.435 | – | –
37 | Cc1cc(N)c(OC(C)C)cc1C1CCNCC1 [1380575-45-0] | – | – | – | 4.645 | 6.442 | 149.293 | –
38 | COc1ccc2cc3[n+](cc2c1OC)CCc1cc2c(cc1-3)OCO2 [Berberine] | – | – | – | 11.952 | 7.924 | 63.219 | –
39 | Cc1cc(C(C)(C)C)c(O)c(C)c1CC1=NCCN1 [Oxymetazoline] | – | 112.174 | – | 8.039 | 8.896 | – | –
40 | CNCc1ccc(CSCCNC(=C[N+](=O)[O-])NC)o1 [N-Desmethyl ranitidine] | – | – | – | 35.663 | 31.7 | 88.566 | –
41 | NC(N)=NC(N)=Nc1ccc(Cl)cc1 [CPB] | – | – | – | 17.903 | 13.901 | 76.322 | –
42 | NCC(O)c1ccccc1 (centres unmarked) [Bisnorephedrine] | – | – | – | 1.295 | 1.345 | 116.872 | –
